Consider 18 compounds from patent US20260055079A1, “PHTHALAZINONE COMPOUNDS AS PARP7 INHIBITORS” (AZKARRA THERAPEUTICS, INC., priority 2022, published 2026).

Like-named read-outs stand apart in the source and are kept apart here.

The target in one experiment is His-GST-PARP7 (Homo sapiens (Human), UniProt Q7Z3E1). The experiment is described as follows: PARP7 biochemical assay. To be noted: read-out: PARP7 IC50.
In a further experiment the target is PARP1 (Homo sapiens (Human), UniProt P09874). In words: PARP1 biochemical assay.
PARP1, sequence (P09874 whole entry, species assumed): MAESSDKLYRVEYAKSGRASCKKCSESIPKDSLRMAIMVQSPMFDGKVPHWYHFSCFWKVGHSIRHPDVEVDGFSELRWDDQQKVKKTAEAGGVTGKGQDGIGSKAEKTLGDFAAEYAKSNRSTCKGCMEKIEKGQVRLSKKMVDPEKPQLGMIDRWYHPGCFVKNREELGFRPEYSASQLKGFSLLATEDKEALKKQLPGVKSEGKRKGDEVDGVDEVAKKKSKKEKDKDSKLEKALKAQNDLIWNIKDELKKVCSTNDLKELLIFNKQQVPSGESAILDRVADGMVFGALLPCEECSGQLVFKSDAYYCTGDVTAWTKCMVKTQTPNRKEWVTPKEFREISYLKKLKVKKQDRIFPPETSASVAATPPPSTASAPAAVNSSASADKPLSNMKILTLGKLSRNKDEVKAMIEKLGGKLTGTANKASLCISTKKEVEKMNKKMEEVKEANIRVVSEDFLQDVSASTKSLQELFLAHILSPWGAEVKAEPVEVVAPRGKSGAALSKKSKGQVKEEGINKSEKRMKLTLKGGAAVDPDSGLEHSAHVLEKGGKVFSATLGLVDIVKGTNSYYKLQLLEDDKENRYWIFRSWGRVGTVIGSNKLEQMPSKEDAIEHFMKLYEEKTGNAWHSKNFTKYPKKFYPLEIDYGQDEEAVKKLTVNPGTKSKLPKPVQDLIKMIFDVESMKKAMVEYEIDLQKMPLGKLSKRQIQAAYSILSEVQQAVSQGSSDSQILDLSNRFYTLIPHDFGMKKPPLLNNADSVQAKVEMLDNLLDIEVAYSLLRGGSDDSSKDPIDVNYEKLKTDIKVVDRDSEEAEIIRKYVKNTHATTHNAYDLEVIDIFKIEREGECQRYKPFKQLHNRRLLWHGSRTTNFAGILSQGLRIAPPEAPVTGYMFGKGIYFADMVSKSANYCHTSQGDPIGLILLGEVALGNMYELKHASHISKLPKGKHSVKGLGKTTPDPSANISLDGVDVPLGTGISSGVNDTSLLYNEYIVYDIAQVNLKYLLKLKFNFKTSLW
The next experiment has as its target PARP2 (Homo sapiens (Human), UniProt Q9UGN5). The experiment is described as follows: PARP2 biochemical assay. Conditions: read-out: PARP2 IC50.
The subject of experiment [1] is NCI-H1373 (human lung adenocarcinoma) cells. The experiment is described as follows: Cell proliferation assay (CellTiter-Glo), NCI-H1373. It is filed as cell-based. To be noted: 6 days, CellTiter-Glo, read-out: NCI-H1373 GI50.
The subject of experiment [2] is HARA (human lung squamous cell carcinoma) cells. In words: Cell proliferation assay (CellTiter-Glo), HARA. The format is cell-based. To be noted: 6 days, CellTiter-Glo, read-out: HARA GI50. A general note: In ATP-based viability assays light output follows the ATP content of the culture.
In the next experiment the test system is STING, pTBK1, pIRF3. In words: STING, pTBK1 and pIRF3 western blot in CT-26 cells. It is filed as cell-based, mouse. A general note: A western blot detects proteins with antibodies after separation by electrophoresis.
In experiment [3] the test system is CT26 (mouse colon adenocarcinoma) cells. In words: Cell proliferation assay (CellTiter-Glo), CT26. The format is cell-based. Conditions: Mus musculus, CT26, 144 h, 6 days.
For a further experiment, the system named is secreted IFN-β. In words: Interferon-β ELISA, CT-26 cells. The format is cell-based, mouse. The method, then: CT-26 cells were seeded into a 6-well plate. After 24 h, the growth media was replaced, and cells were treated with inhibitors. After treatment, growth media was harvested and assayed with PBL Verikine Mouse IFN-β ELISA kit following the manufacturer protocol.

His-GST-PARP7, sequence (Q7Z3E1 whole entry): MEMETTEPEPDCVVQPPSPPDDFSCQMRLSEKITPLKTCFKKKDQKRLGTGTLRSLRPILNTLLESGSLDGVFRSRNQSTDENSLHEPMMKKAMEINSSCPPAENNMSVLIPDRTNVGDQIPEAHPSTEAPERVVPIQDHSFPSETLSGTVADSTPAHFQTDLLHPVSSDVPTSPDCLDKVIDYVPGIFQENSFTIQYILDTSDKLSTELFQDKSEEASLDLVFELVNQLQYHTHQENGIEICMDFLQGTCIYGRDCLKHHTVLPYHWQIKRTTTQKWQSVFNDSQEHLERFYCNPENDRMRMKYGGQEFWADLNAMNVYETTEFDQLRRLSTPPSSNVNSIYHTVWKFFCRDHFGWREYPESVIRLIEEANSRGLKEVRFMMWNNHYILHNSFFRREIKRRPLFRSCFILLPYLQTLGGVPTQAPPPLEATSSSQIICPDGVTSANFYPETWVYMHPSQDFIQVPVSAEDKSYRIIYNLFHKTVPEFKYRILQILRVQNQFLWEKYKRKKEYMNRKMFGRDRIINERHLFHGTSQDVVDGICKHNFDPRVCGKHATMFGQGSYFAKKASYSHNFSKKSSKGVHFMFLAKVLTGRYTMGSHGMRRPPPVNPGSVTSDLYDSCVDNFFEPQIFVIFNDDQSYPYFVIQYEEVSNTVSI
PARP2, sequence (Q9UGN5 whole entry): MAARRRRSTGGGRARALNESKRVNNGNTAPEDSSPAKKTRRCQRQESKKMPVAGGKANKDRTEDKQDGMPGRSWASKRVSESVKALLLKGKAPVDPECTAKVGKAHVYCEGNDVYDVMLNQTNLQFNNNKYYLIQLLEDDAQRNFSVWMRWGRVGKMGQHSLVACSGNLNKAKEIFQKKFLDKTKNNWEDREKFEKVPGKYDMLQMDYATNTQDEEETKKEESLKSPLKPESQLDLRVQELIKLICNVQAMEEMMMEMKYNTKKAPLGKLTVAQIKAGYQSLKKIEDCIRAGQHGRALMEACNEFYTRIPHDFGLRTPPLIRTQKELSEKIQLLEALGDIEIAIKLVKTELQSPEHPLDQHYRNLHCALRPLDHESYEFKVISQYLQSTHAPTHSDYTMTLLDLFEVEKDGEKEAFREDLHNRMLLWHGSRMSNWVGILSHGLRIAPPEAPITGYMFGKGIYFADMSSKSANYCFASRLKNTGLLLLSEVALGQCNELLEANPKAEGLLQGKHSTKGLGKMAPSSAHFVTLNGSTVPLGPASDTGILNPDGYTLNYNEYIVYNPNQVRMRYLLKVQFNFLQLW

As a reminder, the IC50 is the concentration at which inhibition is half-maximal. One may read the GI50 as the concentration giving 50% growth inhibition. In the case of “6-(4-(5-((7-cyclobutoxy-4-oxo-3,4-dihydrophthalazin-1-yl)methyl)-2-fluorobenzoyl)piperazin-1-yl)-4-methoxynicotinonitrile [Example 137]”, the half-inhibitory concentration (IC50) at His-GST-PARP7 was under 50 nM; against PARP1, over 2000 nM; at PARP2, 100 to 500 nM. Moreover, the values for the concentration for 50% growth inhibition (GI50) in experiment [1] and in experiment [2] were under 100 nM and 1 to 5 µM, respectively.

Consider `Cc1ccc2c(=O)c3cccc(CC(=O)O)c3oc2c1C` [DMXAA], for which, in the experiment on STING, pTBK1, pIRF3, the STING levels result was “decreased substantially STING levels”; the “pTBK1 and pIRF3” value was “induced robustly both pTBK1 and pIRF3”.

With `C#CC(C)Oc1ccc2c(=O)[nH]nc(Cc3ccc(F)c(C(=O)N4CCN(c5ccc(C#N)cn5)CC4)c3)c2c1` (stereo not drawn) [Example 8, 6-(4-(5-((7-(But-3-yn-2-yloxy)-4-oxo-3,4-dihydrophthalazin-1-yl)methyl)-2-fluorobenzoyl)piperazin-1-yl)nicotinonitrile], the IC50 was under 50 nM on His-GST-PARP7, 100 to 500 nM against PARP1 and 100 to 500 nM on PARP2. Also, the GI50 in experiment [1] (Homo sapiens, NCI-H1373, 144 h) was under 100 nM; in experiment [2] (Homo sapiens, 144 h), 1 to 5 µM; in experiment [3], under 0.1 µM.

As to `CC#Cc1ccc2c(=O)[nH]nc(Cc3ccc(F)c(C(=O)N4CCn5c(nnc5C(F)(F)F)C4)c3)c2c1` [Example 65, 4-(4-fluoro-3-(3-(trifluoromethyl)-5,6,7,8-tetrahydro-[1,2,4]triazolo[4,3-a]pyrazine-7-carbonyl)benzyl)-6-(prop-1-yn-1-yl)phthalazin-1(2H)-one], the figures for the 50% inhibitory concentration (IC50) at His-GST-PARP7, against PARP1 and at PARP2 were under 50 nM, 50 to 100 nM and 50 to 100 nM, respectively. Moreover, the 50% growth inhibitory concentration (GI50) in experiment [1] (Homo sapiens, NCI-H1373, 144 h) was 100 to 1000 nM.

In the case of `COc1cc2c(Cc3cccc(C(=O)N4CCN(c5ccc(C#N)cn5)CC4)c3)n[nH]c(=O)c2cc1F` [Example 82, 6-(4-(3-((6-Fluoro-7-methoxy-4-oxo-3,4-dihydrophthalazin-1-yl)methyl)benzoyl)piperazin-1-yl)nicotinonitrile], the IC50 on His-GST-PARP7, at PARP1 and on PARP2 was under 50 nM each time. The 50% growth inhibitory concentration (GI50) in experiment [1] (Homo sapiens, NCI-H1373, 144 h) was under 100 nM; in experiment [2] (Homo sapiens, 144 h), 0.1 to 1 µM; in experiment [3], under 0.1 µM.

Consider `CC#Cc1cc(C(F)(F)F)c2c(=O)[nH]nc(Cc3ccc(F)c(C(=O)N4CCN(c5ccc(C#N)cn5)CC4)c3)c2c1` [Example 84, 6-(4-(2-Fluoro-5-((4-oxo-7-(prop-1-yn-1-yl)-5-(trifluoromethyl)-3,4-dihydrophthalazin-1-yl)methyl)benzoyl)piperazin-1-yl)nicotinonitrile], for which the results for the IC50 at His-GST-PARP7, on PARP1 and at PARP2 were under 50 nM, 100 to 500 nM and 100 to 500 nM, respectively. The GI50 was under 100 nM in experiment [1] (Homo sapiens, NCI-H1373, 144 h); 1 to 5 µM in experiment [2] (Homo sapiens, 144 h); over 5 µM in experiment [3].

For the compound `CC#Cc1ccc2c(=O)[nH]nc(Cc3ccc(F)c(C(=O)N4CCN(c5ccc(C#N)cn5)CC4)c3)c2c1C` [Example 86, 6-(4-(2-Fluoro-5-((8-methyl-4-oxo-7-(prop-1-ynyl)-3,4-dihydrophthalazin-1-yl)methyl)benzoyl)piperazin-1-yl)nicotinonitrile], the IC50 on His-GST-PARP7 was under 50 nM; against PARP1, 50 to 100 nM; on PARP2, 500 to 2000 nM. Further, the GI50 in experiment [1] (Homo sapiens, NCI-H1373, 144 h) was under 100 nM; in experiment [2] (Homo sapiens, 144 h), 1 to 5 µM; in experiment [3] it was over 5 µM.

Take `N#Cc1ccc(N2CCN(C(=O)c3cccc(Cc4n[nH]c(=O)c5c(F)c(F)ccc45)c3)CC2)nc1` [Example 87, 6-(4-(3-((5,6-Difluoro-4-oxo-3,4-dihydrophthalazin-1-yl)methyl)benzoyl)piperazin-1-yl)nicotinonitrile]: the concentration for half-maximal inhibition (IC50) on His-GST-PARP7, against PARP1 and at PARP2 was under 50 nM each time. The GI50 in experiment [1] (Homo sapiens, NCI-H1373, 144 h) is under 100 nM; in experiment [2] (Homo sapiens, 144 h), 0.1 to 1 µM; in experiment [3], 0.1 to 1 µM.

For `O=C(c1cc(Cc2n[nH]c(=O)c3ccc(OC4CCC4)cc23)ccc1F)N1CCN(c2ncc(C(F)F)cn2)CC1` [Example 157, 6-Cyclobutoxy-4-(3-(4-(5-(difluoromethyl)pyrimidin-2-yl)piperazine-1-carbonyl)-4-fluorobenzyl)phthalazin-1(2H)-one], the IC50 at His-GST-PARP7 is under 50 nM. Moreover, the GI50 is under 100 nM in experiment [1] (Homo sapiens, NCI-H1373, 144 h); 1 to 5 µM in experiment [2] (Homo sapiens, 144 h); 1 to 5 µM in experiment [3].

With `O=C(c1cc(Cc2n[nH]c(=O)c3ccc(OC4CCC4)cc23)ccc1F)N1CCN(c2ccc(C(F)(F)F)nn2)CC1` [Example 158, 6-cyclobutoxy-4-(4-fluoro-3-(4-(6-(trifluoromethyl)pyridazin-3-yl)piperazine-1-carbonyl)benzyl)phthalazin-1(2H)-one], at His-GST-PARP7, the half-maximal inhibitory concentration (IC50) is under 50 nM. In addition, the GI50 was 1000 to 5000 nM in experiment [1] (Homo sapiens, NCI-H1373, 144 h); over 5 µM in experiment [2] (Homo sapiens, 144 h); 1 to 5 µM in experiment [3].

Turning to `O=C(c1cc(Cc2n[nH]c(=O)c3ccc(OC4CCC4)cc23)ccc1F)N1CCN(c2ccc(C(F)(F)F)nc2)CC1` [Example 159, 6-Cyclobutoxy-4-(4-fluoro-3-(4-(6-(trifluoromethyl)pyridin-3-yl)piperazine-1-carbonyl)benzyl)phthalazin-1(2H)-one], the concentration for half-maximal inhibition (IC50) on His-GST-PARP7 was under 50 nM. Further, the GI50 in experiment [1] (Homo sapiens, NCI-H1373, 144 h) is 100 to 1000 nM; in experiment [2] (Homo sapiens, 144 h) it was over 5 µM; in experiment [3], over 5 µM.

With `N#Cc1ccc(N2CCN(C(=O)c3cccc(Cc4n[nH]c(=O)c5ccc(OC6CCC6)cc45)n3)CC2)nc1` [Example 176, 6-(4-(6-((7-Cyclobutoxy-4-oxo-3,4-dihydrophthalazin-1-yl)methyl)picolinoyl)piperazin-1-yl)nicotinonitrile], the figures for the half-inhibitory concentration (IC50) on His-GST-PARP7, against PARP1 and on PARP2 were under 50 nM, 50 to 100 nM and 100 to 500 nM, respectively. In addition, the concentration for 50% growth inhibition (GI50) in experiment [1] (Homo sapiens, NCI-H1373, 144 h) is 100 to 1000 nM; in experiment [2] (Homo sapiens, 144 h), over 5 µM; in experiment [3], 1 to 5 µM.

Turning to `N#Cc1ccc(N2CCN(C(=O)c3cncc(Cc4n[nH]c(=O)c5ccc(OC6CCC6)cc45)c3)CC2)nc1` [Example 177, 6-(4-(5-((7-Cyclobutoxy-4-oxo-3,4-dihydrophthalazin-1-yl)methyl)nicotinoyl)piperazin-1-yl)nicotinonitrile], the IC50 on His-GST-PARP7 was under 50 nM; on PARP1, 50 to 100 nM; on PARP2, 100 to 500 nM. Further, the GI50 in experiment [1] (Homo sapiens, NCI-H1373, 144 h) was under 100 nM; in experiment [2] (Homo sapiens, 144 h), over 5 µM; in experiment [3] it was over 5 µM.

For `N#Cc1ccc(N2CCN(C(=O)c3cc(Br)cc(Cc4n[nH]c(=O)c5ccc(OC6CCC6)cc45)c3)CC2)nc1` [Example 178, 6-(4-(3-Bromo-5-((7-cyclobutoxy-4-oxo-3,4-dihydrophthalazin-1-yl)methyl)benzoyl)piperazin-1-yl)nicotinonitrile], the IC50 at His-GST-PARP7 is under 50 nM. Also, the GI50 in experiment [1] (Homo sapiens, NCI-H1373, 144 h) is 100 to 1000 nM; in experiment [2] (Homo sapiens, 144 h) it was 1 to 5 µM; in experiment [3], over 5 µM.

As for `N#Cc1ccc(N2CCN(C(=O)c3cc(Cc4n[nH]c(=O)c5ccc(OC6CCC6)cc45)ccn3)CC2)nc1` [Example 179, 6-(4-(4-((7-Cyclobutoxy-4-oxo-3,4-dihydrophthalazin-1-yl)methyl)picolinoyl)piperazin-1-yl)nicotinonitrile], the IC50 at His-GST-PARP7 was under 50 nM. The 50% growth inhibitory concentration (GI50) in experiment [1] (Homo sapiens, NCI-H1373, 144 h) is under 100 nM; in experiment [2] (Homo sapiens, 144 h), over 5 µM; in experiment [3] it was over 5 µM.

For `N#Cc1ccc(N2CCN(C(=O)c3ccnc(Cc4n[nH]c(=O)c5ccc(OC6CCC6)cc45)c3)CC2)nc1` [Example 180, 6-(4-(2-((7-Cyclobutoxy-4-oxo-3,4-dihydrophthalazin-1-yl)methyl)isonicotinoyl)piperazin-1-yl)nicotinonitrile], the 50% inhibitory concentration (IC50) at His-GST-PARP7 is under 50 nM. The GI50 in experiment [1] (Homo sapiens, NCI-H1373, 144 h) is under 100 nM; in experiment [2] (Homo sapiens, 144 h), over 5 µM; in experiment [3], 1 to 5 µM.

Turning to `CC#Cc1ccc2c(=O)[nH]nc(CNC(C)CC(=O)N3CCN(c4ncc(C(F)(F)F)cn4)CC3)c2c1` (stereo not drawn) [Example 191, 4-(((4-Oxo-4-(4-(5-(trifluoromethyl)pyrimidin-2-yl)piperazin-1-yl)butan-2-yl)amino)methyl)-6-(prop-1-yn-1-yl)phthalazin-1(2H)-one], the IC50 at His-GST-PARP7 was under 50 nM; against PARP1 it was over 2000 nM; on PARP2, over 2000 nM. Besides, the 50% growth inhibitory concentration (GI50) in experiment [1] (Homo sapiens, NCI-H1373, 144 h) is 100 to 1000 nM; in experiment [2] (Homo sapiens, 144 h), 1 to 5 µM; in experiment [3] it was over 5 µM.

For `CCc1ccc(NC(=O)Nc2c[nH]c3ccccc23)cc1` [Example H-151], the “PARP7 inhibitor-induced induction of IFN-β” value in the experiment with secreted IFN-β is “completely blocked”.
